Laboratory results from US11351178B2, “Selective HDAC6 inhibitors” (ITALFARMACO S.P.A., priority 2017, dated 2022).
Like-named read-outs stand apart in the source and are kept apart here.

Tests used:
[1] = target: T1, recombinant human HDAC6 (Homo sapiens, UniProt Q9UBN7); assay: Enzymatic screening on recombinant human HDAC6; assay type: biochemical; conditions: read-out: HDAC6 IC50
T1 sequence (Q9UBN7 1-1215): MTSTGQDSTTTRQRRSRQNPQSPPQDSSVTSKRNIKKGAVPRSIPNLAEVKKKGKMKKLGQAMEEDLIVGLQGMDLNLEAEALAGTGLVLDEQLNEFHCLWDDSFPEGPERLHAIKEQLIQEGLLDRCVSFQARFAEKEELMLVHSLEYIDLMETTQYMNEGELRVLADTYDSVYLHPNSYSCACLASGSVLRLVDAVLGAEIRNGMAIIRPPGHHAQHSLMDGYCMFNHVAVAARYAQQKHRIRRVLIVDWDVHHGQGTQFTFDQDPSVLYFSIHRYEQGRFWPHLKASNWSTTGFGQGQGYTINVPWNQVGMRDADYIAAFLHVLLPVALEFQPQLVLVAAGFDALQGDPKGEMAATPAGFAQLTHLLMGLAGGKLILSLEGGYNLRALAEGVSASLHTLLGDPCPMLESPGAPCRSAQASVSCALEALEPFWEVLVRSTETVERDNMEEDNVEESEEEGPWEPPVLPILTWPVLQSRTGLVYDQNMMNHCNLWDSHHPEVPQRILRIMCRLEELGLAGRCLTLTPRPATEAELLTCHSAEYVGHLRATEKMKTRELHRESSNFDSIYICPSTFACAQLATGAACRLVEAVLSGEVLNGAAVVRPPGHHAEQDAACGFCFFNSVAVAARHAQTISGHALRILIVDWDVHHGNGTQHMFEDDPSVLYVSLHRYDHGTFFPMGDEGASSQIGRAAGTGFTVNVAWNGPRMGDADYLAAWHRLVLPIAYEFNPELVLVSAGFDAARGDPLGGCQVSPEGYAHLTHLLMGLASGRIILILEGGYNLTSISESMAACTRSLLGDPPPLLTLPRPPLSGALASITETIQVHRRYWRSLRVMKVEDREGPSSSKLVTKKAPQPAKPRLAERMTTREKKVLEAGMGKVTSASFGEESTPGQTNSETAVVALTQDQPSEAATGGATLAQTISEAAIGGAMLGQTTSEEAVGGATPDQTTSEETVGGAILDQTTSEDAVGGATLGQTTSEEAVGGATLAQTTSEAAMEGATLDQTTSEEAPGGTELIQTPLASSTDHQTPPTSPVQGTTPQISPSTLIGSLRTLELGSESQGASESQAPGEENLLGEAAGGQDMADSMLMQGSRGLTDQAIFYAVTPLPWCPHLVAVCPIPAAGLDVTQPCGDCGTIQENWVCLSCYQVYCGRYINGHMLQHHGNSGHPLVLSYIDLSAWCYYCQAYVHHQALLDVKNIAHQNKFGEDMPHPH
Outline: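 Compound + recombinant human HDAC, 30 °C, incubation time isoform-specific. Substrate (FdL, FdL-Green or Tfal) added as 2× stock in 25 mM Tris-HCl pH 8/130 mM NaCl/0.05% Tween-20/10% glycerol; reaction at 30 °C.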

[2] = target: T2, HDAC4 (Homo sapiens, UniProt P56524); assay: Enzymatic test HDAC4; assay type: biochemical; conditions: Table 3
T2 construct: purchased BPS 50004
Protocol: After a period of incubation at 30° C. (incubation times vary for different isoforms and are shown in table 1) 25 μL of solution containing the substrate were added. As substrate, FLUOR DE LYS® deacetylase substrate (Enzo Life Sciences, cat #BML-K1104, FdL), FLUOR DE LYS®-Green substrate (Enzo Life Sciences, cat #BML-K1572 FdL_G) and trifluoroacetyl-L-lysine (Tfal)-2× concentrated solution in 25 mM Tris-HCl, pH 8, 130 mM NaCl 0.05% Tween-20 10% glycerol) were used. Following a reaction period at 30° C.

[3] = Stability to Phase I metabolism in human S9 liver fraction; assay type: in vitro ADME
Outline: (§1)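 Compounds were incubated with rat or human liver S9 fraction at 37 °C for up to 90 min. Reactions were quenched on ice with acidified acetonitrile and analysed by HPLC-UV or LC-MS/MS. Percent remaining versus time zero and intrinsic clearance were calculated.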

[4] = Stability in human plasma; assay type: in vitro ADME; conditions: after 4 hours, 37° C.
Outline: (§2)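 Compounds incubated at 37° C in rat or human plasma at 50 μM (UV/HPLC) or 1 or 2 μM (LC-MS/MS) for 0–4 h. Reaction stopped with acidified acetonitrile on ice; percent remaining versus initial amount and plasma half-life calculated.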

[5] = Stability in rat plasma; assay type: in vitro ADME; conditions: after 4 hours, 37° C.
Outline: as §2

[6] = Stability to Phase I metabolism in rat S9 liver fraction; assay type: in vitro ADME; conditions: after 90 min, 37° C.
Outline: as §1

[7] = human liver S9 fraction, after 90 min, 37° C.

T2 sequence (P56524 627-1084 limits assumed): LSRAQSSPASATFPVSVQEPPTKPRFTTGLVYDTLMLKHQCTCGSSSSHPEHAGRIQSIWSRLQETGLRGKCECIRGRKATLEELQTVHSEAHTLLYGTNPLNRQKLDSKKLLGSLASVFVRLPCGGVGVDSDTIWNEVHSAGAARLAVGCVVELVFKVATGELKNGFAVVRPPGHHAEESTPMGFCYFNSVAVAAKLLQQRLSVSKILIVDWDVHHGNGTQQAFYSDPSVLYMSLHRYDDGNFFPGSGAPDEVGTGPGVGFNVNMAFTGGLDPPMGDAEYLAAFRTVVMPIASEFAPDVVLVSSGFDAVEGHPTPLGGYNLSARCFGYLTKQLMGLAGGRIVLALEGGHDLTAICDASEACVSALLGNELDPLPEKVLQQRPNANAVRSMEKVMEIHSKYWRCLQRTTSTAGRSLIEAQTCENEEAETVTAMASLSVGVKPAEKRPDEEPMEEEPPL

| SMILES | IC50 ([1]; Table 2) | IC50 ([1]; Table 3) | IC50 [2] | residual percentage in human S9 fraction ([3]; human, 90 min, pH 7.4) | residual percentage in rat plasma [5] | residual percentage in rat S9 fraction [6] | residual percentage in human plasma [4] | residual percentage in human S9 fraction [3, 7] |
| --- | --- | --- | --- | --- | --- | --- | --- | --- |
| O=C(NO)c1cc(F)c(Cn2nnc(-c3ccccn3)n2)c(F)c1 [comp. 6, 3,5-difluoro-N-hydroxy-4-((5-(pyridin-2-yl)-2H-tetrazol-2-yl)methyl)benzamide] | 7 nM | 7 nM | 1040 nM |  | 87% | 96.6% | 96% | 85.6% |
| Cn1c(Sc2ccc(C(=O)NO)cc2)nnc1-c1cccs1 [comp. 10, N-hydroxy-4-((4-methyl-5-(thiophen-2-yl)-4H-1,2,4-triazol-3-yl)thio)benzamide] | 8 nM | 9 nM | 2500 nM |  | 86% | 82% | 99% | 95% |
| O=C(NO)c1cc(F)c(Cn2nnnc2-c2cccs2)c(F)c1 [comp. 15, 3,5-difluoro-N-hydroxy-4-((5-(thiophen-2-yl)-1H-tetrazol-1-yl)methyl)benzamide] | 19 nM | 19 nM | 660 nM | 83% | 78% | 60% | 91% |  |
| Cn1c(Sc2c(F)cc(C(=O)NO)cc2F)nnc1-c1cccs1 [comp. 17, 3,5-difluoro-N-hydroxy-4-((4-methyl-5-(thiophen-2-yl)-4H-1,2,4-triazol-3-yl)thio)benzamide] | 9 nM | 9 nM | 1390 nM |  | 87% | 71% | 98% | 83% |
| O=C(NO)c1cc(F)c(Cn2nnc(-c3ccco3)n2)c(F)c1 [comp. 19, 3,5-difluoro-4-((5-(furan-2-yl)-2H-tetrazol-2-yl)methyl)-N-hydroxybenzamide] | 4 nM | 4 nM | 675 nM |  | 96% | 68% | 100% | 94% |

More lines, main results first:

| IC50 ([1]; Table 2) | IC50 ([1]; Table 3) | IC50 [2] | residual percentage in human S9 fraction ([3]; human, 90 min, pH 7.4) | residual percentage in rat plasma [5] | residual percentage in rat S9 fraction [6] | SMILES | residual percentage in human plasma [4] | residual percentage in human S9 fraction [3, 7] |
| --- | --- | --- | --- | --- | --- | --- | --- | --- |
| 81 nM | 81 nM | 10100 nM | 81% | 86% | 70% | COc1ccc(C(=O)N[C@@H](Cc2cscn2)c2nc(Cc3ccc(C(=O)NO)cc3)no2)cc1OC [comp. 1, (S)—N-(1-(3-(4-(hydroxycarbamoyl)benzyl)-1,2,4-oxadiazol-5-yl)-2-(thiazol-4-yl)ethyl)-3,4-dimethoxybenzamide] | 102% |  |
| 16 nM | 16 nM | 1460 nM | 78% | 79% | 1% | Cn1c(Sc2c(F)cc(C(=O)NO)cc2F)nnc1-c1cccc2ccccc12 [comp. 2, 3,5-difluoro-N-hydroxy-4-((4-methyl-5-(naphthalen-1-yl)-4H-1,2,4-triazol-3-yl)thio)benzamide] | 71% |  |
| 4 nM | 4 nM | 606 nM | 98% | 96.7% | 90.9% | O=C(NO)c1cc(F)c(Cn2nnnc2-c2ccccn2)c(F)c1 [comp. 13, 3,5-difluoro-N-hydroxy-4-((5-(pyridin-2-yl)-1H-tetrazol-1-yl)methyl)benzamide] | 94% |  |
| 8 nM | 8 nM | 541 nM |  | 99% | 73% | O=C(NO)c1cc(F)c(Cn2nnc(-c3scc4c3OCCO4)n2)c(F)c1 [comp. 79, 4-[[5-(2,3-dihydrothieno[3,4-b][1,4]dioxin-5-yl)tetrazol-2-yl]methyl]-3,5-difluoro-benzenecarbohydroxamic acid] |  |  |
| 16 nM | 16 nM | 731 nM |  | 77% | 32% | CN(C)c1cccc(-c2nnc(Sc3c(F)cc(C(=O)NO)cc3F)n2C)c1 [comp. 80, 4-[[5-[3-(dimethylamino)phenyl]-4-methyl-1,2,4-triazol-3-yl]sulfanyl]-3,5-difluoro-benzenecarbohydroxamic acid] |  |  |
| 5 nM | 5 nM | 1030 nM |  | 76% | 75% | Cc1cc(-c2nnc(Sc3ccc(C(=O)NO)cc3)n2C)nn1C [comp. 85, 4-[[5-(1,5-dimethylpyrazol-3-yl)-4-methyl-1,2,4-triazol-3-yl]sulfanyl]benzenecarbohydroxamic acid] |  |  |
| 61 nM | 61 nM | 1610 nM |  | 89% | 88% | Cn1c(Sc2c(F)cc(C(=O)NO)cc2F)nnc1C(c1ccccc1)c1ccccc1 [comp. 98, 4-[(5-benzhydryl-4-methyl-1,2,4-triazol-3-yl)sulfanyl]-3,5-difluoro-benzenecarbohydroxamic acid] |  |  |
